The supplement of paper PMC12463676, “Small-molecule dissolution of stress granules by redox modulation benefits ALS models” (Nature Chemical Biology, 2025)

How the values were obtained:
[1] = compound: NC(=O)CCCCC1CCSS1 [lipoamide]; test: thermal stability z-score vs DMSO; higher = more thermally stabilized by treatment; settings: HeLa, lipoamide concentration 100 µM
Method: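 Cellular thermal proteome profiling in HeLa cells. Cells were treated with 100 µM lipoamide for 1 h, with or without 1 mM arsenate for a further 1 h, then heated to ten temperatures (37-66.3 °C), and soluble protein was quantified by TMT mass spectrometry relative to 0.1% DMSO controls. The thermal stability score (sum of log2 fold changes minus the abundance score) was transformed to a z-score; mean of n = 3 experiments.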

[2] = compound: O=[As]([O-])(O)O.[K+] [potassium arsenate]; test: as above; settings: HeLa; arsenate concentration 1 mM
Method: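 Cellular thermal proteome profiling in HeLa cells treated with 1 mM arsenate for 1 h (DMSO pretreatment), heated to ten temperatures (37-66.3 °C). Soluble protein was quantified by TMT mass spectrometry relative to DMSO controls; the thermal stability score was transformed to a z-score; mean of n = 3 experiments.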

[3] = arsenate co-treatment: 1 mM arsenate 1 h
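Further: each temperature applied for 3 min, abundance score taken as mean log2 fold change at the two lowest temperatures, z-score obtained by mean subtraction and division by SD.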

Sequence of UniProt Q8TBC4 (Q8TBC4 whole entry): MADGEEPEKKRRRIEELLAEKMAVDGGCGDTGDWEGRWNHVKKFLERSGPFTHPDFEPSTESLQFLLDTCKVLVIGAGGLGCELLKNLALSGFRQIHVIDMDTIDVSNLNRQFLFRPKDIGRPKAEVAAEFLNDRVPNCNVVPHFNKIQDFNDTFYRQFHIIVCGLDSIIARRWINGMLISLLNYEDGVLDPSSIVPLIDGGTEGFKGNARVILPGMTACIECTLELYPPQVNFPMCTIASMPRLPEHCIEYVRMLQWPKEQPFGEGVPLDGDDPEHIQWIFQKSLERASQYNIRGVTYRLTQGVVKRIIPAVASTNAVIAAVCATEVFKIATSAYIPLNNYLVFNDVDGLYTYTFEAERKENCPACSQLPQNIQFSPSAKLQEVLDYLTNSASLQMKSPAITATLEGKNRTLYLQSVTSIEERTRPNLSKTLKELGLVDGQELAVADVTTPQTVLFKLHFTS
Sequence of UniProt P54578 (P54578 whole entry): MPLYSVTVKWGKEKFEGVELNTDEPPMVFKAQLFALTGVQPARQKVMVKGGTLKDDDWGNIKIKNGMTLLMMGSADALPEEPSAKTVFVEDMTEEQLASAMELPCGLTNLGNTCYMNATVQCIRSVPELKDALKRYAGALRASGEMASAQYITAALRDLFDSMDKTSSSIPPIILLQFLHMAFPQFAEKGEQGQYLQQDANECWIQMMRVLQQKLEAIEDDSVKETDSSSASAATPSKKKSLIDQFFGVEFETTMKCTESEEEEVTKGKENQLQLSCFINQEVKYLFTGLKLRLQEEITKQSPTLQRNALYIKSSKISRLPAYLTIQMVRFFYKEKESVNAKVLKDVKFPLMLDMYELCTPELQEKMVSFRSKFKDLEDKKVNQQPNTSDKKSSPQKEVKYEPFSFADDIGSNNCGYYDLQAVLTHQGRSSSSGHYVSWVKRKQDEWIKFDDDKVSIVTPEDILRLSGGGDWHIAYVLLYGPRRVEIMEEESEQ
Sequence of UniProt Q86VV8 (Q86VV8 whole entry): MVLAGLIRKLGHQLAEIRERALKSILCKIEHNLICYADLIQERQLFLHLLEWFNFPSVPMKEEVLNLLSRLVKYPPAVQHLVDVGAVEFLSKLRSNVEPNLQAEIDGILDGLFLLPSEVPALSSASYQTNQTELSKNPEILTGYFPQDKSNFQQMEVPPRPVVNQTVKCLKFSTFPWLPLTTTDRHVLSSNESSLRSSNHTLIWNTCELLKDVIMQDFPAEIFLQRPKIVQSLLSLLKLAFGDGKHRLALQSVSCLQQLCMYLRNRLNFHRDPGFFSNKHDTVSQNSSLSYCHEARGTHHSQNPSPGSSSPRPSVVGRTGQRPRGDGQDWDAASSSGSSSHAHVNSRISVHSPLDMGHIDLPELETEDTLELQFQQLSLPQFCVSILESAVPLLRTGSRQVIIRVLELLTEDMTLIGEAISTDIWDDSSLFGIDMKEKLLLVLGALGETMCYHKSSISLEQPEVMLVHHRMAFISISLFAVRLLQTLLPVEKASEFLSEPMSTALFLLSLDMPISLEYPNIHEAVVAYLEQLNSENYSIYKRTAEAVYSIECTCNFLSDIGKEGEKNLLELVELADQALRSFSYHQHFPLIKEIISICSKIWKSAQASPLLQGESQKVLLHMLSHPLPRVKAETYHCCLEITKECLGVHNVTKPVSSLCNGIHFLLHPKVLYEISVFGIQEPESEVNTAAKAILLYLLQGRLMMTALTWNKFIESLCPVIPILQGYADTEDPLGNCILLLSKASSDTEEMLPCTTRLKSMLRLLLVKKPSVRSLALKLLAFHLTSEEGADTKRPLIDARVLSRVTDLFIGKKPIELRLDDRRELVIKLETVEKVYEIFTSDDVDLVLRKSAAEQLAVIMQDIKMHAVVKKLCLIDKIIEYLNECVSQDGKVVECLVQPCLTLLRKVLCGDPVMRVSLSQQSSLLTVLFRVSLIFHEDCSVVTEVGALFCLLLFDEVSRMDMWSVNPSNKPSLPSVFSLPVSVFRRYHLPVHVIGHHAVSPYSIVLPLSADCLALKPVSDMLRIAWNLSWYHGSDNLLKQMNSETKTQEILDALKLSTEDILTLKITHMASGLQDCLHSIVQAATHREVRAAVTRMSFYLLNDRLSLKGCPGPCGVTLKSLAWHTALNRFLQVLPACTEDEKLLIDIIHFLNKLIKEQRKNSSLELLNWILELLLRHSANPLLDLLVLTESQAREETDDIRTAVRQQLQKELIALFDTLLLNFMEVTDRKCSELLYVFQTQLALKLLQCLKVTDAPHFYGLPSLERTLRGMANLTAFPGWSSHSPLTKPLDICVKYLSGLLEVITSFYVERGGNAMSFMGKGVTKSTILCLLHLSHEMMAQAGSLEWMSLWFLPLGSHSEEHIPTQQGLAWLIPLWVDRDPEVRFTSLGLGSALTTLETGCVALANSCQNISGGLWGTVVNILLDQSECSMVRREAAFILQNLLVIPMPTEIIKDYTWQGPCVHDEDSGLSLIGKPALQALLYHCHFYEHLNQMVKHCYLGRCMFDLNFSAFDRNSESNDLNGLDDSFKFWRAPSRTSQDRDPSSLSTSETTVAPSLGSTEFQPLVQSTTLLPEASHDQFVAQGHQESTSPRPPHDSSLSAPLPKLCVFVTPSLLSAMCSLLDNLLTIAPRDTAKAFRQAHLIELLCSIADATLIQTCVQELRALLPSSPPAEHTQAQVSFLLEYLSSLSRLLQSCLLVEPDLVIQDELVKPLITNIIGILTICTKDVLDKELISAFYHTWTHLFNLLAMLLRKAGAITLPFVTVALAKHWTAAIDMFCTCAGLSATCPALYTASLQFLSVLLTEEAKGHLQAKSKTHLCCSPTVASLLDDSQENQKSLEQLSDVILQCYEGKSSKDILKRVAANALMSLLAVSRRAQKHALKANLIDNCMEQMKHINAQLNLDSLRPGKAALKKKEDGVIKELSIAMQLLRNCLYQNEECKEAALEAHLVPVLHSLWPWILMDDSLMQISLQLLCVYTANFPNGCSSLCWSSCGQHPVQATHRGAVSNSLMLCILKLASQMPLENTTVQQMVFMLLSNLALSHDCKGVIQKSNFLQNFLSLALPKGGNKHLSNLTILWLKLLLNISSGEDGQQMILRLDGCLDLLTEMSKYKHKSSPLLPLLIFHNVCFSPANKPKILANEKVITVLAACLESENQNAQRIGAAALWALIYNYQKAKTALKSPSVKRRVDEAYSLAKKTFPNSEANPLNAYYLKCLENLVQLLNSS
Sequence of UniProt Q6PIJ6 (Q6PIJ6 whole entry): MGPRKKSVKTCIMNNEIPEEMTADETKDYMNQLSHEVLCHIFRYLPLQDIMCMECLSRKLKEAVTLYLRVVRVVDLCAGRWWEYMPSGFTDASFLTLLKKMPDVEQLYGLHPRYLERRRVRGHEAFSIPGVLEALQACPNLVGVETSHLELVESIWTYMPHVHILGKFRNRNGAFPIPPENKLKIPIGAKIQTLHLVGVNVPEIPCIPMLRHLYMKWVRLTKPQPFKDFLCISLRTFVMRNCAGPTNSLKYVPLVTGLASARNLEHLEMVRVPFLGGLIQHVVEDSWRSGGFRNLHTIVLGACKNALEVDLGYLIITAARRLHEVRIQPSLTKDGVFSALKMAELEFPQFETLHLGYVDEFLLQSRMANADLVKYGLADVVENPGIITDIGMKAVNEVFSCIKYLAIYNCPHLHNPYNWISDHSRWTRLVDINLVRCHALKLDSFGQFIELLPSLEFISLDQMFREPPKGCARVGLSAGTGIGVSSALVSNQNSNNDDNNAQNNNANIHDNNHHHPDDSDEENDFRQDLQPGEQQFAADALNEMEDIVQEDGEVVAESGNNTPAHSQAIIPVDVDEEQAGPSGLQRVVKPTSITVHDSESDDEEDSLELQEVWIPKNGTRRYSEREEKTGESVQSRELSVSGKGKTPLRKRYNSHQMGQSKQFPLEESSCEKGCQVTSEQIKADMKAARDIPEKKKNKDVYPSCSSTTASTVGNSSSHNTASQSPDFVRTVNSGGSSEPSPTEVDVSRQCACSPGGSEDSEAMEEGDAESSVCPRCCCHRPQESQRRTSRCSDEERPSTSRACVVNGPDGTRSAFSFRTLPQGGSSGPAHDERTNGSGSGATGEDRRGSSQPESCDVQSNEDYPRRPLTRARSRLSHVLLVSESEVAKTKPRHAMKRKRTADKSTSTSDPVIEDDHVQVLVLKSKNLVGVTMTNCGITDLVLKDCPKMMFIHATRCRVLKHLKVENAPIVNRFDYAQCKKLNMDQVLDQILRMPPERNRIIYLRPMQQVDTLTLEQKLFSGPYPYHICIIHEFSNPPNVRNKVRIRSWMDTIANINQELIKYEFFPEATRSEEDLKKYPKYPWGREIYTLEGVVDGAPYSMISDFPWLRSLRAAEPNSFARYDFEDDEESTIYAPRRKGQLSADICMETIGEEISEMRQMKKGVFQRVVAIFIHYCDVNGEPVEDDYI
Sequence of UniProt Q8N6M0 (Q8N6M0 whole entry): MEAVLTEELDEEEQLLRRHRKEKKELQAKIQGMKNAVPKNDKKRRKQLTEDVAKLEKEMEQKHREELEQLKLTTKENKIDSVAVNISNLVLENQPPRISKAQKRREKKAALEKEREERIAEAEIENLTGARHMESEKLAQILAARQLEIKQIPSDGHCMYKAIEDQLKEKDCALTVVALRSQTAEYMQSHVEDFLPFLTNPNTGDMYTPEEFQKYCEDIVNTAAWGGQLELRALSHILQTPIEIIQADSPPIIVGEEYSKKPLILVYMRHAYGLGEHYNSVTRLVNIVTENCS
Sequence of UniProt Q9NVQ4 (Q9NVQ4 whole entry): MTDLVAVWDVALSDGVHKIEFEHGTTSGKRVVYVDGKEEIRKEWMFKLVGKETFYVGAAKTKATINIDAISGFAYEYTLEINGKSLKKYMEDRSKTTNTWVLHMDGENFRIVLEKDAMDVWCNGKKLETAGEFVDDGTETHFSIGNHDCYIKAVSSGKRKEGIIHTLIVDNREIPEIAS
Sequence of UniProt Q9Y3B2 (Q9Y3B2 whole entry): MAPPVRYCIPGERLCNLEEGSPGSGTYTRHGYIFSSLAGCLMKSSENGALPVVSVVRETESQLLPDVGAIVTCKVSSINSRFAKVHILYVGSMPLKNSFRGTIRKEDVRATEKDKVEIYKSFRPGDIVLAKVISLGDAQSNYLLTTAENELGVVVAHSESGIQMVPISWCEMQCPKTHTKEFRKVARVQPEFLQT

Target	thermal stability z-score [1, 3]	thermal stability z-score ([1]; arsenate co-treatment: none)	thermal stability z-score [2]
RICTOR (UniProt Q6R327)	-1.23	-0.161	0.166
SLC19A1 (UniProt P41440)	-0.381	-0.505	0.0431
TMEM23|SGMS1	0.177	-0.142	-0.151
PYCR2 (UniProt Q96C36)	0.43	-0.4	-0.765
HECTD3 (UniProt Q5T447)	-0.331	-0.0311	0.272
AZIN1 (UniProt O14977)	0.745	0.806	0.62
MPP7 (UniProt Q5T2T1)	-0.0378	-0.274	-0.0635
ETNK1 (UniProt Q9HBU6)	0.392	1.06	0.244
FAIM (UniProt Q9NVQ4)	1.03	0.411	0.336
EXOSC1 (UniProt Q9Y3B2)	0.0998	-1.26	-0.615
DDR2 (UniProt Q16832)	-0.251	-0.189	-0.163
FBXO38 (UniProt Q6PIJ6)	0.0679	-0.115	-0.981
PIGA (UniProt P37287)	0.843	0.283	0.147
NDUFAF1 (UniProt Q9Y375)	-0.593	-0.335	-0.0374
STRN4 (UniProt Q9NRL3)	-0.136	0.198	0.937
WRAP53 (UniProt Q9BUR4)	-0.113	-0.15	-0.337
RASSF1 (UniProt Q9NS23)	-0.0475	0.04	-0.089
DNAJC17 (UniProt Q9NVM6)	0.0174	0.0121	-0.299
SLC1A3 (UniProt P43003)	-0.157	0.124	0.352
TRIM47 (UniProt Q96LD4)	-0.148	-0.0936	0.944
NUP50 (UniProt Q9UKX7)	1.4	1.06	0.502
WDR75 (UniProt Q8IWA0)	0.0395	0.0658	0.152
CCZ1B|CCZ1	0.296	0.0817	0.404
DPP3 (UniProt Q9NY33)	0.77	0.569	-0.00156
DLG5 (UniProt Q8TDM6)	0.227	-0.0304	0.0056
USP14 (UniProt P54578)	0.406	-0.143	-0.0718
RHOG (UniProt P84095)	0.489	0.491	0.00682
TSC2 (UniProt P49815)	0.021	-0.0212	0.0977

Target	thermal stability z-score [1, 3]	thermal stability z-score ([1]; arsenate co-treatment: none)	thermal stability z-score [2]
MTX1 (UniProt Q13505)	-0.275	0.061	0.421
UBA3 (UniProt Q8TBC4)	-0.466	-0.282	-0.0439
TDP1 (UniProt Q9NUW8)	0.0423	-0.0239	-0.00328
LYSMD1 (UniProt Q96S90)	1.23	0.621	0.777
SLC7A2 (UniProt P52569)	0.412	-0.0842	0.647
H6PD (UniProt O95479)	-1.51	-1.8	-0.472
EYA4 (UniProt O95677)	0.0211	-0.116	0.168
OTUD6B (UniProt Q8N6M0)	0.504	-0.85	0.0655
VPS29 (UniProt Q9UBQ0)	-0.418	-0.247	-0.613
RARS2 (UniProt Q5T160)	0.0904	-0.0472	0.328
UNC119B (UniProt A6NIH7)	1.07	0.468	-0.0898
RTTN (UniProt Q86VV8)	-0.0275	-0.0536	-0.117
AMACR (UniProt Q9UHK6)	0.683	-0.138	0.504
PSMC1 (UniProt P62191)	-0.269	-0.208	-0.724
ARAP1 (UniProt Q96P48)	-0.133	-0.0899	-0.345
SCO1 (UniProt O75880)	-2.79	-2.65	3.03
VWA5A (UniProt O00534)	-0.245	0.147	-0.235
MCUR1 (UniProt Q96AQ8)	0.853	1.15	-0.0449
NSUN4 (UniProt Q96CB9)	-0.26	0.337	-0.318
SLC25A1 (UniProt P53007)	1.03	0.6	0.43
NDUFA4 (UniProt O00483)	0.551	0.887	0.532
KIAA1524 (UniProt Q8TCG1)	-0.00458	-0.0673	0.662
RPS6KB1 (UniProt P23443)	-0.0619	0.679	0.138
SRA1 (UniProt Q9HD15)	0.911	0.998	0.51
ARHGAP4 (UniProt P98171)	-0.00218	0.000585	0.0513
UBR4 (UniProt Q5T4S7)	-0.162	-0.16	0.242
FECH (UniProt P22830)	0.24	0.0849	-0.203
